Laboratory results as given in ChEMBL document CHEMBL5370668, “Expected and Unexpected Products from the Biochemical Oxidation of Bacterial Alkylquinolones with CYP4F11” (2023).
Calls of active or inactive are those of the source. No cut-off for these calls is given here.

Key:
[1] = test system: Staphylococcus epidermidis; experiment: Antimicrobial activity against Staphylococcus epidermidis ATCC 14990 assessed as zone of inhibition at 60 ug incubated overnight by agar well diffusion assay; assay type: functional; details: read-out: DIZ
Staphylococcus aureus = experiment: Antimicrobial activity against Staphylococcus aureus ATCC 12600 assessed as zone of inhibition at 60 ug incubated overnight by agar well diffusion assay; assay type: functional; details: read-out: DIZ
Candida albicans = experiment: Antibiofilm activity against Candida albicans assessed as reduction in biofilm formation at 100 uM incubated for 48 hrs by XTT biofilm assay; assay type: functional, organism-based

Compound | zone of inhibition at 60 µg/disc [1] | zone of inhibition at 60 µg/disc (Staphylococcus aureus) | Activity (Candida albicans)
O=c1cc(CCCCCCCCCO)[nH]c2ccccc12 | 0 mm | 0 mm | inactive
O=c1cc(CCCCCCCCO)[nH]c2ccccc12 | 0 mm | 0 mm | –
O=c1cc(CCCCCCCO)[nH]c2ccccc12 | 0 mm | 0 mm | inactive
CC1(C)S[C@@H]2[C@H](NC(=O)Cc3ccccc3)C(=O)N2[C@H]1C(=O)O [PENICILLIN G] | 38 mm | 41 mm | –
O=c1cc(CCCCCCCCCCO)[nH]c2ccccc12 | 0 mm | 0 mm | inactive
CCCCCCCCc1cc(=O)c2ccccc2[nH]1 | 12 mm | 11 mm | Active
CC(=O)OCCCCCCCCCCc1cc(=O)c2ccccc2[nH]1 | 10 mm | 10 mm | –
CC(=O)OCCCCCCCCc1cc(=O)c2ccccc2[nH]1 | 9 mm | 9 mm | –
CCCCCCCc1cc(=O)c2ccccc2[nH]1 | 13 mm | 13 mm | Active
CCCCCCCCCCc1cc(=O)c2ccccc2[nH]1 | 12 mm | 10 mm | Active
CCCCCc1cc(O)c2ccccc2n1 | 14 mm | 13 mm | Active
CC(=O)OCCCCCCCCCc1cc(=O)c2ccccc2[nH]1 | 11 mm | 11 mm | –
CC(=O)OCCCCCCCc1cc(=O)c2ccccc2[nH]1 | 7 mm | 8 mm | –
CCCCCCCCCc1cc(=O)c2ccccc2[nH]1 | 12 mm | 12 mm | Active
